Measurements: ChEMBL document CHEMBL2046384, “Discovery of novel benzylidene-1,3-thiazolidine-2,4-diones as potent and selective inhibitors of the PIM-1, PIM-2, and PIM-3 protein kinases” (Bioorg Med Chem Lett, 2012)
In brackets after ≈: the same amount, converted by molar mass. Activity calls are given as the source filed them. No cut-off for these calls is given here.

Legend:
[1] = target: T1, Serine/threonine-protein kinase pim-3 (Homo sapiens, UniProt Q86V86); test: Inhibition of human PIM3 using FITC-(AHX)RSRHSSYPAGT-COOH as substrate after 90 mins by mobility shift assay in presence of 50 uM ATP
[2] = target: T2, Serine/threonine-protein kinase pim-2 (Homo sapiens, UniProt Q9P1W9); test: Inhibition of human PIM2 using FITC-(AHX)RSRHSSYPAGT-COOH as substrate after 90 mins by mobility shift assay in presence of 50 uM ATP
Target sequence in this assay (Q9P1W9 whole entry): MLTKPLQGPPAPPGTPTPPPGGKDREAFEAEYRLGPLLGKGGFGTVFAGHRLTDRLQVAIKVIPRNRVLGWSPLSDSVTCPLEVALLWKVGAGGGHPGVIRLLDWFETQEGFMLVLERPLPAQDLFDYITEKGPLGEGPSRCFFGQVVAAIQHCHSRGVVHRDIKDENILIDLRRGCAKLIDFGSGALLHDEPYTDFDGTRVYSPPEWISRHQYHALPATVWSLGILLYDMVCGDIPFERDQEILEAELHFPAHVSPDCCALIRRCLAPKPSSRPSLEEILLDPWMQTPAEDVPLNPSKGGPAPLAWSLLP

[3] = target: T3, Serine/threonine-protein kinase pim-1 (Homo sapiens, UniProt P11309); test: Inhibition of human PIM1 using FITC-(AHX)RSRHSSYPAGT-COOH as substrate after 90 mins by mobility shift assay in presence of 50 uM ATP
Target sequence in this assay (P11309 whole entry): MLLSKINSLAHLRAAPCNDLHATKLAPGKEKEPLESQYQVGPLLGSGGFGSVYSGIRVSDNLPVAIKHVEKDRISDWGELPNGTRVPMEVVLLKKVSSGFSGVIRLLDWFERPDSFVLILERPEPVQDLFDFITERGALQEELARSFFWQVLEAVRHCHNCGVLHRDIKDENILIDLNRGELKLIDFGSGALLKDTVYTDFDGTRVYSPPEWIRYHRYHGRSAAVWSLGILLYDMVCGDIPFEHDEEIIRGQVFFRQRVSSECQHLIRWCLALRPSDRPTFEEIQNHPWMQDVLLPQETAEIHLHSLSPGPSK

[4] = Equilibrium solubility of the compound in phosphate buffer after 24 hrs at pH 7.4; format: physicochemical
[5] = target: T2, Serine/threonine-protein kinase pim-2; test: Inhibition of human PIM2 using FITC-(AHX)RSRHSSYPAGT-COOH as substrate after 90 mins by mobility shift assay in presence of 5 mM ATP
Target sequence in this assay (Q9P1W9 whole entry): as the sequence (Q9P1W9 whole entry) above

[6] = Antiproliferative activity against human MOLM16 cells after 72 hrs by Cell Titer-Blue assay; format: functional; details: MOLM16, 72 h
[7] = target: T1, Serine/threonine-protein kinase pim-3; test: Inhibition of human PIM3 using FITC-(AHX)RSRHSSYPAGT-COOH as substrate after 90 mins by mobility shift assay in presence of 5 mM ATP
[8] = target: Voltage-gated inwardly rectifying potassium channel KCNH2 (Homo sapiens, UniProt Q12809); test: Inhibition of human ERG
[9] = target: T3, Serine/threonine-protein kinase pim-1; test: Inhibition of human PIM1 using FITC-(AHX)RSRHSSYPAGT-COOH as substrate after 90 mins by mobility shift assay in presence of 5 mM ATP
Target sequence in this assay (P11309 whole entry): as the sequence (P11309 whole entry) above

[10] = in vitro; details: rat, liver microsomes
[11] = target: T3, Serine/threonine-protein kinase pim-1; details: 1 uM
Target sequence in this assay (P11309 whole entry, looked up): as the sequence (P11309 whole entry) above

[12] = target: Cyclin-dependent kinase 2 (Homo sapiens) (UniProt P24941); test: Inhibition of CDK2 at 1 uM
[13] = target: T1, Serine/threonine-protein kinase pim-3; details: 1 uM
[14] = target: T2, Serine/threonine-protein kinase pim-2; details: 1 uM
Target sequence in this assay (Q9P1W9 whole entry, looked up): as the sequence (Q9P1W9 whole entry) above

[15] = target: Phosphatidylinositol 4,5-bisphosphate 3-kinase catalytic subunit gamma isoform (Homo sapiens) (UniProt P48736); test: Inhibition of PI3Kgamma at 1 uM
[16] = Dissociation constant, pKa of the compound; format: physicochemical

Chain of Voltage-gated inwardly rectifying potassium channel KCNH2 (Q12809 whole entry): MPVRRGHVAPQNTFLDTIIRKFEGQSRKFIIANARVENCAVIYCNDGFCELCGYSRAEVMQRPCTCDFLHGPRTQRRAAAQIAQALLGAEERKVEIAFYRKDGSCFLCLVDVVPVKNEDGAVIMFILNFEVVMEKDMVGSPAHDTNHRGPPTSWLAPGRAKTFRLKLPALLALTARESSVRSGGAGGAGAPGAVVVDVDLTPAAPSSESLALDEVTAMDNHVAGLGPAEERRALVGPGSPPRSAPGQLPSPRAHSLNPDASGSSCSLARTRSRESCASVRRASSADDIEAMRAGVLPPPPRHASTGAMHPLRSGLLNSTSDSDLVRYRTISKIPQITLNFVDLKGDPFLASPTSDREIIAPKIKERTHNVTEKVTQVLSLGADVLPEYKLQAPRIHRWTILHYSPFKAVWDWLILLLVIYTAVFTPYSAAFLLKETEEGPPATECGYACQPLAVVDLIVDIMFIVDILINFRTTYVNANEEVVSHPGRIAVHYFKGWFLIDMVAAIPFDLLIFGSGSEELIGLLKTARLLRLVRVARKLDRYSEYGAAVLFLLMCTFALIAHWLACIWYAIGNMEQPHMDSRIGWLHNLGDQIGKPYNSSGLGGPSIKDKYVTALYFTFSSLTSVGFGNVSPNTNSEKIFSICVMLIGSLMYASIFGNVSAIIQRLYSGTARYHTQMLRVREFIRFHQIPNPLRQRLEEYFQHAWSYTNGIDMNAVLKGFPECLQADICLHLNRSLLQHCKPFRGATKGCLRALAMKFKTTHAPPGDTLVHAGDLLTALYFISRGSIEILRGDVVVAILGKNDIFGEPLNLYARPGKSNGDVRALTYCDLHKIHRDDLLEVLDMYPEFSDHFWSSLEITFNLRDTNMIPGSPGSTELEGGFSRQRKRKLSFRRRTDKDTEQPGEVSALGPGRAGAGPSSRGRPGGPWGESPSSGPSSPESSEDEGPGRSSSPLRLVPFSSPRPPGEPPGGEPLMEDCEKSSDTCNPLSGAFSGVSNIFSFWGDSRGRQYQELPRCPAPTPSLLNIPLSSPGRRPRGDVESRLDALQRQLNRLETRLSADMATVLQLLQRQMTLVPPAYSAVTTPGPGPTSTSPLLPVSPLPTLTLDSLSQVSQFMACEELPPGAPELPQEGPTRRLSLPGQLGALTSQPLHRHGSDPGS
Chain of Phosphatidylinositol 4,5-bisphosphate 3-kinase catalytic subunit gamma isoform (Homo sapiens) (P48736 whole entry, looked up, canonical isoform): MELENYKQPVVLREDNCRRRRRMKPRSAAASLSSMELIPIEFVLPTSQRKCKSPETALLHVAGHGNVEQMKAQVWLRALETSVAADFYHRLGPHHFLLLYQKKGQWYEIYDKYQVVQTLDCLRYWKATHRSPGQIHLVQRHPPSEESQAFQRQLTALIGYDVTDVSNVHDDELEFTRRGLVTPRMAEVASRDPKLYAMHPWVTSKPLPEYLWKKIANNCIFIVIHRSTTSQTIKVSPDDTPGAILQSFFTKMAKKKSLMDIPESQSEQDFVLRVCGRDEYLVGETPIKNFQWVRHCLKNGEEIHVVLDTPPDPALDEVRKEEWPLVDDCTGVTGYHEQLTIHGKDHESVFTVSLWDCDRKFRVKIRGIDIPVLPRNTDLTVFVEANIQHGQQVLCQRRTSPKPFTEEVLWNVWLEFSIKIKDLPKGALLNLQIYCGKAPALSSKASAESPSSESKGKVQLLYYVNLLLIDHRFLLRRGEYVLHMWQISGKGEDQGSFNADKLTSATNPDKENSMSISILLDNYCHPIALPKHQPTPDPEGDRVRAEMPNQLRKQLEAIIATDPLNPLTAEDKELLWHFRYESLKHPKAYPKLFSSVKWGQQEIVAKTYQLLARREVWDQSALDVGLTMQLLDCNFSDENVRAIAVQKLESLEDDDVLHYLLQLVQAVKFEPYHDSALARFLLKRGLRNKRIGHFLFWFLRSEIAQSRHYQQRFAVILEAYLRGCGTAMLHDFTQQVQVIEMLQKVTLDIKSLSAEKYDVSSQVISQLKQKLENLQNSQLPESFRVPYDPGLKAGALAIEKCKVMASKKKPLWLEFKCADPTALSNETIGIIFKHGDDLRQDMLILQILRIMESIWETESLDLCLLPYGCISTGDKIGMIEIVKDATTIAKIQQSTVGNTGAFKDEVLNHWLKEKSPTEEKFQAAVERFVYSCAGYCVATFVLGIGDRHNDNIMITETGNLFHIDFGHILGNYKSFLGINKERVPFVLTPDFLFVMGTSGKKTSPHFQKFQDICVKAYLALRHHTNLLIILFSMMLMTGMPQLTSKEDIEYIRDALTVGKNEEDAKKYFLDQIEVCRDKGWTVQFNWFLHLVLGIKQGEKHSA

| SMILES | IC50 [1] [nM] | IC50 [2] [nM] | IC50 [3] [nM] | solubility thermodynamic at 24 h [4] [µM] | IC50 [5] [nM] | GI50 [6] [nM] | IC50 [7] [nM] | IC50 [8] [nM] | IC50 [9] [nM] | microsomal CLint at 2 µM [10] [µL/min/mg] | inhibition [11] [%] | inhibition [12] | inhibition [13] [%] | inhibition [14] [%] | inhibition [15] | pKa [16] |
| --- | --- | --- | --- | --- | --- | --- | --- | --- | --- | --- | --- | --- | --- | --- | --- | --- |
| N[C@H]1CCN(c2ccccc2/C=C2\SC(=O)NC2=O)C1 | 42 | 250 | 36 | – | – | – | – | – | – | – | – | – | – | – | – | – |
| N[C@@H]1CCCN(c2ccccc2/C=C2\SC(=O)NC2=O)C1 | 9 | 14 | 9 | 782 (≈ 237 µg/mL) | 1200 | 490 | 240 | > 30000 | 100 | – | – | – | – | – | – | – |
| CCOc1cccc(/C=C2\SC(=O)NC2=O)c1N1CCC[C@@H](N)C1 | < 3 | < 4 | < 3 | > 1000 | 160 | 80 | 6 | – | 10 | 12.1 | – | – | – | – | – | – |
| N[C@@H]1CCCN(c2c(Br)cccc2/C=C2\SC(=O)NC2=O)C1 | < 3 | < 3 | < 3 | > 720 | 150 | 100 | 10 | > 30000 | 10 | < 4.8 | > 50 | inactive | > 50 | > 50 | inactive | – |
| O=C1NC(=O)/C(=C/c2ccccc2N2CCNCC2)S1 | 36 | 180 | 28 | – | – | – | – | – | – | – | – | – | – | – | – | – |
| O=C1NC(=O)/C(=C/c2cccc(Cl)c2N2CCNCC2)S1 | 26 | 82 | 18 | – | – | – | – | – | – | – | – | – | – | – | – | – |
| N[C@H]1CCN(c2c(Cl)cccc2/C=C2\SC(=O)NC2=O)C1 | < 5 | 25 | < 6 | – | – | – | – | – | – | – | – | – | – | – | – | – |
| O=C1NC(=O)/C(=C/c2ccccc2)S1 | 730 | 4700 | 890 | – | – | – | – | – | – | – | – | – | – | – | – | 6.14 |
| CC(C)(C)OC(=O)N[C@H]1CCN(c2ccccc2/C=C2\SC(=O)NC2=O)C1 | 3200 | 15000 | 1500 | – | – | – | – | – | – | – | – | – | – | – | – | – |
| COc1ccc(/C=C2\SC(=O)NC2=O)cc1OC | 280 | 2500 | 950 | – | – | – | – | – | – | – | – | – | – | – | – | – |
| N[C@@H]1CCCN(c2c(/C=C3\SC(=O)NC3=O)cccc2-c2ccncc2)C1 | 4 | 19 | < 3 | 142 (≈ 54 µg/mL) | 690 | 2280 | 38 | – | 4 | – | – | – | – | – | – | – |
| COc1cccc(/C=C2\SC(=O)NC2=O)c1N1CCC[C@@H](N)C1 | < 3 | 5 | < 3 | > 1000 | 320 | 210 | 10 | – | 20 | 3.9 | – | – | – | – | – | – |
| CCOc1cc(/C=C2\SC(=O)NC2=O)ccc1O | 390 | 160 | 160 | – | – | – | – | – | – | – | – | – | – | – | – | – |
| CN(C)C1CCN(c2ccccc2/C=C2\SC(=O)NC2=O)C1 (configuration not stated) | 110 | 500 | 61 | – | – | – | – | – | – | – | – | – | – | – | – | – |
| N[C@@H]1CCCN(c2c(/C=C3\SC(=O)NC3=O)cccc2-c2ccccc2)C1 | – | – | – | 263 (≈ 99.8 µg/mL) | – | 20 | – | > 30000 | – | < 4.8 | – | – | – | – | – | – |
| CC(C)COc1cccc(/C=C2\SC(=O)NC2=O)c1N1CCC[C@@H](N)C1 | < 3 | < 4 | < 3 | 337 (≈ 127 µg/mL) | 140 | 80 | < 3 | 23000 | 8 | 6.9 | – | – | – | – | – | – |
| N[C@H]1CCN(c2cc(Cl)ccc2/C=C2\SC(=O)NC2=O)C1 | 5 | 79 | 12 | – | – | – | – | – | – | – | – | – | – | – | – | – |
| N[C@@H]1CCCN(c2c(Cl)cccc2/C=C2\SC(=O)NC2=O)C1 | < 3 | 5 | < 3 | – | 310 | 190 | 20 | – | 20 | 8.8 | – | – | – | – | – | – |
| CC(C)Oc1cccc(/C=C2\SC(=O)NC2=O)c1N1CCC[C@@H](N)C1 | < 3 | < 3 | < 3 | 378 (≈ 137 µg/mL) | 50 | 20 | < 3 | – | < 4 | < 4.8 | – | – | – | – | – | – |
